# Experimental data reported in US11903945B2, “Methods of treating antipsychotic-induced weight gain with miricorilant” (Corcept Therapeutics Incorporated, priority 2019, dated 2024).
# “And” between values parts separate entries of the source, which are not always exact repeats. Equal entries are not always repeated. “Also recorded” adds a separate entry of the source. Where two headings read alike, the source gives them in different places.
# Key:
# [1] = molecular target: T1, progesterone receptor (Homo sapiens, UniProt P06401); settings: cited from earlier work
# T1 sequence (P06401 1-933): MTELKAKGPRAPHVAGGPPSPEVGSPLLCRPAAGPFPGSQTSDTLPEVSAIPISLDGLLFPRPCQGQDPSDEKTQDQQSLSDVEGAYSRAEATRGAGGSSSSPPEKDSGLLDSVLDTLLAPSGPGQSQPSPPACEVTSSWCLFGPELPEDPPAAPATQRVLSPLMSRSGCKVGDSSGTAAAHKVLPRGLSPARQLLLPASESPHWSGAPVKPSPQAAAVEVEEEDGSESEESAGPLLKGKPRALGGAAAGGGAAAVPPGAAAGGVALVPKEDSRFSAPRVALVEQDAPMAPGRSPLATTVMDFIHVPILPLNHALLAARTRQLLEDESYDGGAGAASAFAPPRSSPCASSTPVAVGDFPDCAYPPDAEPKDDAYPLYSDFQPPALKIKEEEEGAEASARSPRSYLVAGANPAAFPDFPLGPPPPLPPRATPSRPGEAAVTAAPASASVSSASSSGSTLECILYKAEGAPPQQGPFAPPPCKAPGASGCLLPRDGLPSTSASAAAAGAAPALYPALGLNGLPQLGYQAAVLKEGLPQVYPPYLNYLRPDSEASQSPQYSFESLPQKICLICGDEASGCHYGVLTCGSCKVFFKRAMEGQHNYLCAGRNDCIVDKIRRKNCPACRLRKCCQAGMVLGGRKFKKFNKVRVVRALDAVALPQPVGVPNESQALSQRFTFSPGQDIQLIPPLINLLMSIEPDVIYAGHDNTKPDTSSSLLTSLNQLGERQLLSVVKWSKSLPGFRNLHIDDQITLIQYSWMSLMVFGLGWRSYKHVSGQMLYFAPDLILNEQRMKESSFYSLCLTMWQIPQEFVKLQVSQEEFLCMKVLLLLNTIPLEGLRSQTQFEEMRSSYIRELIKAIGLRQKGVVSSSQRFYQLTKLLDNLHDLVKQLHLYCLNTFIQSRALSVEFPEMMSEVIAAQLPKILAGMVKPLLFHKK
# [2] = Hunt et al., Bioorg Med Chem Lett. 2012; cited from earlier work
# [3] = format: in vivo; settings: female rats; for Study day from which body weight reduction became statistically significant: treatment started Day 35
# Experimental: On day 35, the rodents were randomized to 4 different interventions and remained on study until day 57. The four intervention groups were: OLZ+vehicle daily by oral gavage; OLZ+2 mg/kg/day miricorilant once daily; OLZ+1 mg/kg miricorilant twice daily; and OLZ+10 mg/kg/day miricorilant once daily. A fifth group, a vehicle-only group (n=12), was included as a control for the entirety of the 57 days.
# Starting at week 6, either miricorilant (MIRI, 3 dosing regimens) or vehicle 2 was administered orally. […] The vehicle-only group was included as a control for the 8-week duration of the study. Efficacy was assessed based on body weight, food consumption, mortality, and clinical observations.
# The articles were stored refrigerated between dosing.
# Body weights were measured and recorded three times weekly during the acclimation period, every other day beginning on Day −1, and prior to termination on Day 57. Food consumption was measured and recorded daily beginning on Day −14. Body weights and food consumption were measured within 2 hours of the initial time on Day −1. Any changes in bodyweight greater than 15 grams (g) and changes in food consumption greater than 5 g were verified. Food jars were weighed twice for precision during food jar changes.
# [4] = Experimental: The dose level tested in our Phase 1b trial was 600 mg/day.
# A 2-week, single-center, double-blind, randomized, placebo-controlled study was conducted in healthy male subjects age 18-55 years with BMI between 18-25 kg/m^2 and a stable body weight (defined as the Day 1 pre-dose body weight to be within ±2.0% of screening body weight). […] Food was freely available to all subjects during the study. The difference in mean change in absolute body weight after administration of OLZ+PBO compared to OLZ+MIRI was evaluated using a repeated measures model with imputation applied to missing values.
# (HOMA2-IR values were calculated from fasted glucose and insulin levels using the HOMA (HOMA2 Model) Calculator® application programming interface for SAS (Oxford University 2013, available at the website www.dtu.ox.ac.uk/homacalculator)).
# [5] = Group 3: OLZ + miricorilant 1 mg/kg/dose BID
# [6] = Group 4: OLZ + miricorilant 2 mg/kg/dose QD
# [7] = Group 5: OLZ + miricorilant 10 mg/kg/dose QD
# [8] = first week of miricorilant treatment with OLZ, P<0.01
# [9] = (1 − (A/B)) × 100, MIRI 600 mg/day + OLZ vs placebo + OLZ, healthy male subjects
# [10] = healthy male subjects, day not given, listed as miricorilant = olanzapine+miricorilant, listed as olanzapine = olanzapine+placebo
# [11] = healthy male subjects, listed as miricorilant = MIRI 600 mg/day + OLZ 10 mg/day, listed as olanzapine = placebo + OLZ 10 mg/day
# [12] = healthy male subjects, listed as miricorilant = MIRI 600 mg/day + OLZ, listed as olanzapine = placebo + OLZ 10 mg/day, unit given in Table 1, not in Table 2
# [13] = healthy male subjects, listed as miricorilant = olanzapine+miricorilant, listed as olanzapine = olanzapine+placebo
# [14] = healthy male subjects, listed as miricorilant = olanzapine+miricorilant, listed as olanzapine = olanzapine+placebo, from Table 2 with Table 1 baselines
compound,measurement,setting,value
"O=c1[nH]c(=O)c(Cc2cccc(C(F)(F)F)c2)c([C@H]2CC[C@H](c3ccccc3)CC2)[nH]1 [miricorilant, (E)-6-(4-Phenylcyclohexyl)-5-(3-trifluoromethylbenzyl)-1H-pyrimidine-2,4-dione]",Affinity for the progesterone receptor,[1],without affinity
same,Effect on olanzapine-induced weight gain in rats,[2],prevent olanzapine-induced weight gain
same,Study day from which body weight reduction became statistically significant,[3]; Group 3: 1 mg/kg/dose BID,36
same,Body weight reduction at Day 57 vs olanzapine control Group 2 ([…] g),[3]; [5],13%
same,Least Squares (LS) mean body weight at Day 57,[3]; [5],268 g
same,Group mean body weight at Day 57,"[3]; Group 3: OLZ + miricorilant 1 mg/kg/dose BID oral, Days 35-57",269 g
same,Study day from which body weight reduction became statistically significant,[3]; Group 4: 2 mg/kg/dose QD,38
same,Body weight reduction at Day 57 vs olanzapine control Group 2 ([…] g),[3]; [6],12%
same,Least Squares (LS) mean body weight at Day 57,[3]; [6],272 g
same,Loss compared with basal body weight (vehicle-only control) at the end of the study,[3]; [6],no significant loss; also recorded: no reduction
same,Group mean body weight at Day 57,"[3]; Group 4: OLZ + miricorilant 2 mg/kg/dose QD oral, Days 35-57",272 g
same,Study day from which body weight reduction became statistically significant,[3]; Group 5: 10 mg/kg/dose QD,36
same,Body weight reduction at Day 57 vs olanzapine control Group 2 ([…] g),[3]; [7],17%
same,Least Squares (LS) mean body weight at Day 57,[3]; [7],259 g
same,Group mean body weight at Day 57,"[3]; Group 5: OLZ + miricorilant 10 mg/kg/dose QD oral, Days 35-57",258 g
same,Food consumption by the end of the study,[3]; all three miricorilant dose regimens with OLZ,returned to vehicle-only levels
same,Decrease in weight compared to the OLZ+vehicle group,"[3]; days 35-57, all three miricorilant regimens with OLZ, p<0.05",12-17%
same,Food consumption lower compared to olanzapine-only animals,[3]; [8],16%-23%
same,Food consumption lower compared to vehicle-only controls,[3]; [8],13%-20%
same,Mortality,"[3]; miricorilant 1 mg/kg BID, 2 or 10 mg/kg QD with OLZ, Days 35-57",no mortalities
same,Effect on olanzapine-induced body weight gains and food consumption increases,"[3]; oral, all three dose regimens, within first week of treatment (Week 6), maintained",completely abrogated
same,"% reduction in OLZ-induced increase: HOMA2-IR, Day 8",[4]; [9],38%
same,"% reduction in OLZ-induced increase: HOMA2-IR, Day 15",[4]; [9],39%
same,"% reduction in OLZ-induced increase: body weight, Day 8",[4]; [9],25%
same,"% reduction in OLZ-induced increase: body weight, Day 15",[4]; [9],22%
same,"% reduction in OLZ-induced increase: insulin, Day 8",[4]; [9],38%
same,"% reduction in OLZ-induced increase: insulin, Day 15",[4]; [9],39%
same,"% reduction in OLZ-induced increase: triglycerides, Day 8",[4]; [9],49%
same,"% reduction in OLZ-induced increase: triglycerides, Day 15",[4]; [9],45%
same,Difference in weight gain between treatment groups on day 15,"[4]; OLZ+MIRI vs OLZ+PBO, MMRM, P=0.017, 95% CI [−1.94, −0.19], healthy male subjects",-1.07 kg
same,Difference in weight gain between treatment groups on day 8,"[4]; OLZ+MIRI vs OLZ+PBO, MMRM, P=0.044, 95% CI [−1.77, −0.02], healthy male subjects",-0.9 kg
same,Difference in triglyceride increase on day 8,"[4]; OLZ+MIRI vs OLZ+PBO, P<0.001, healthy male subjects",-0.53 mmol/L
same,Difference in HOMA2-IR on day 15,"[4]; OLZ+MIRI vs OLZ+PBO, P=0.007, healthy male subjects",−0.47
same,Difference in HOMA2-IR on day 8,"[4]; OLZ+MIRI vs OLZ+PBO, P=0.012, healthy male subjects",−0.44
same,Difference in plasma insulin increase on day 8,"[4]; OLZ+MIRI vs OLZ+PBO, P=0.013, healthy male subjects",−3.49 mIU/L
same,Difference in triglyceride increase on day 15,"[4]; OLZ+MIRI vs OLZ+PBO, P=0.057, healthy male subjects",-0.28 mmol/L
same,HOMA2-IR level relative to baseline,[4]; [10],less than 2 fold
same,"Insulin resistance (HOMA2-IR) increase from baseline, percent",[4]; [10],about 90%
same,Body weight increase from baseline on Day 8,[4]; [11],2.6 kg and 2.59 kg
same,Body weight increase from baseline on Day 15,[4]; [11],3.9 kg and 3.91 kg
same,HOMA2-IR increase from baseline on Day 8,[4]; [11],0.71
same,HOMA2-IR increase from baseline on Day 15,[4]; [11],0.74
same,Insulin increase from baseline on Day 8,[4]; [11],5.65 mIU/L
same,Insulin increase from baseline on Day 15,[4]; [11],5.91 mIU/L
same,Triglycerides increase from baseline on Day 8,[4]; [12],0.56 mmol/L
same,Triglycerides increase from baseline on Day 15,[4]; [12],0.34 mmol/L
same,"Insulin increase from baseline, percent, day 8",[4]; [13],about 92%
same,"Insulin increase from baseline, percent, day 15",[4]; [13],97%
same,"Triglycerides increase from baseline, percent, day 8",[4]; [13],about 60%
same,"Triglycerides increase from baseline, percent, day 15",[4]; [13],37%
same,"Body weight increase from baseline, percent of baseline, day 8",[4]; [14],about 3.6%
same,"Body weight increase from baseline, percent of baseline, day 15",[4]; [14],5.4%
same,"ALT increase from baseline, percent, day 7","[4]; human, in vivo",152%
same,"ALT increase from baseline, percent, day 12","[4]; human, in vivo",528%
same,"AST increase from baseline, percent, day 7","[4]; human, in vivo",71%
same,"AST increase from baseline, percent, day 12","[4]; human, in vivo",192%
same,Difference in ALT levels between treatment arms on day 12,"[4]; human, in vivo",−49.99 IU/L
same,Difference in AST levels between groups on day 12,"[4]; human, in vivo",−32.24 IU/L
same,Tolerability of the dose,"[4]; human, in vivo",very well tolerated
same,Difference in plasma insulin increase on day 15,"[4]; printed as between PBO and OLZ, P=0.007, healthy male subjects",3.74 mIU/L
